In assay [1] the target is Serine/threonine-protein kinase WNK2 (Homo sapiens) (UniProt Q9Y3S1). The experiment in a line: Selectivity interaction (ActivX KiNativ screen (ex vivo kinase selectivity in human PBMCs)) EUB0001619a WNK2. It counts as cell-based. The note with it: PBMC, at 1 µM.
The target of assay [2] is Serine/threonine-protein kinase PLK2 (Homo sapiens, UniProt Q9NYY3). The assay is described as follows: Selectivity interaction (KinomeScan (DiscoverX)) EUB0000695a PLK2. The note with it: at 100 nM.
For assay [3], the target named is T1, Ephrin type-B receptor 3 (Homo sapiens) (UniProt P54753).
T1 sequence (whole entry): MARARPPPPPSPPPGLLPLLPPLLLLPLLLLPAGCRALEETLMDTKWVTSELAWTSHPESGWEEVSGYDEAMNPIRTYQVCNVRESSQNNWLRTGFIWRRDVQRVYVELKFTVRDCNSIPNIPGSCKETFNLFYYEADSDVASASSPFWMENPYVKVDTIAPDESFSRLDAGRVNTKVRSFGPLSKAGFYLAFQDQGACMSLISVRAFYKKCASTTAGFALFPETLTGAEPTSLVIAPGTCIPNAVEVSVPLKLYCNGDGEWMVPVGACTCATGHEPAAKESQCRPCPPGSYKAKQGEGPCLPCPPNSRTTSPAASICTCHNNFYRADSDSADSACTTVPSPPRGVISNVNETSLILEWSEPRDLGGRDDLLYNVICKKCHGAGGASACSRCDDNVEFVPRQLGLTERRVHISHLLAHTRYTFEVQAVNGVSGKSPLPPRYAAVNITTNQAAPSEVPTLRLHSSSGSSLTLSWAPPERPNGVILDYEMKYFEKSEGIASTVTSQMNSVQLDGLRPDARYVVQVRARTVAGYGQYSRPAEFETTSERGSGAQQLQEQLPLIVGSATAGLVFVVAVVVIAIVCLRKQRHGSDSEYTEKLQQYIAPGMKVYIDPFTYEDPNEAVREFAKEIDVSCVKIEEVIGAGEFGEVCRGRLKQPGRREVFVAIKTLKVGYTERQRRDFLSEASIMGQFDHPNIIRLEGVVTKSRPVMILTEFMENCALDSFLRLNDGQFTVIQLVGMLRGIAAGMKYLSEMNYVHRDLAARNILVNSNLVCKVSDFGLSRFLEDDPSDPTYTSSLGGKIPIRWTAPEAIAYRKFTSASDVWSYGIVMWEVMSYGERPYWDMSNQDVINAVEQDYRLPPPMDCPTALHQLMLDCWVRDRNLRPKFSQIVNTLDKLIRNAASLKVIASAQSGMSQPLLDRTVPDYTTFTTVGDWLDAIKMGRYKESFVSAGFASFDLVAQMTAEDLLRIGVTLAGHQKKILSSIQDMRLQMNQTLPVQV
The assay is described as follows: Selectivity interaction (KinomeScan (DiscoverX)) EUB0000666a EPHB3. The note with it: at 10 µM.

Assay [4] addresses Tyrosine-protein kinase JAK1 (Homo sapiens, UniProt P23458). The experiment in a line: Selectivity interaction (SelectScreen profiling (Invitrogen)) EUB0000607a JAK1. The note with it: at 2 µM.
In assay [5] the target is T2, Testis-specific serine/threonine-protein kinase 2 (Homo sapiens) (UniProt Q96PF2).
T2 sequence (whole entry): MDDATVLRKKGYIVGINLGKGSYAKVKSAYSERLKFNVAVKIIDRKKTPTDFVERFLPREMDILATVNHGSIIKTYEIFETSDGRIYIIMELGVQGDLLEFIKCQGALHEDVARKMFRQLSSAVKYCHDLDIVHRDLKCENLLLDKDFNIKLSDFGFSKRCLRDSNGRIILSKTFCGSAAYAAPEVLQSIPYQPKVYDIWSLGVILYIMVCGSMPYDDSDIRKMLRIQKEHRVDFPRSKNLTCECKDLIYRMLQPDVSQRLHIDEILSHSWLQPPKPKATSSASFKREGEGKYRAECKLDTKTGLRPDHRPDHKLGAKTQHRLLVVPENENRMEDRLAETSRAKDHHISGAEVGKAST
The experiment in a line: Selectivity interaction (SelectScreen profiling (Invitrogen)) EUB0000607a TSSK2. The note with it: at 2 µM.

For assay [6], the target named is Mitogen-activated protein kinase kinase kinase 4 (Homo sapiens) (UniProt Q9Y6R4). The note with it: at 10 µM.
The target in assay [7] is T3, Cyclin-dependent kinase 7 (Homo sapiens, UniProt P50613). To be noted: at 10 µM.
For assay [8], the target named is Glycogen synthase kinase-3 beta (Homo sapiens, UniProt P49841). The assay is described as follows: Selectivity interaction (ActivX KiNativ screen (kinase selectivity in THP-1 cell lysates)) EUB0000639a GSK3B. Format: subcellular. The note with it: lysate.
For assay [9], the target named is Casein kinase II subunit alpha' (Homo sapiens) (UniProt P19784). The experiment in a line: Selectivity interaction (Kinase panel (literature)) EUB0001199aCl CSNK2A2. The note with it: at 1 µM.
The target of assay [10] is Dual specificity tyrosine-phosphorylation-regulated kinase 1A (Homo sapiens, UniProt Q13627). The assay is described as follows: Selectivity interaction (KinomeScan (DiscoverX)) EUB0000092b DYRK1A. The note with it: at 10 µM.
For assay [11], the target named is Sodium-dependent dopamine transporter (Homo sapiens, UniProt Q01959). The assay is described as follows: Selectivity interaction (Panel of non-epigenetic targets (kinases, GPCRs, ion channels, and transporters, Eurofins) ) EUB0000271b SLC6A3. The note with it: at 1 µM.
Assay [12] addresses T4, 5-hydroxytryptamine receptor 2C (Homo sapiens) (UniProt P28335).
T4 sequence (whole entry): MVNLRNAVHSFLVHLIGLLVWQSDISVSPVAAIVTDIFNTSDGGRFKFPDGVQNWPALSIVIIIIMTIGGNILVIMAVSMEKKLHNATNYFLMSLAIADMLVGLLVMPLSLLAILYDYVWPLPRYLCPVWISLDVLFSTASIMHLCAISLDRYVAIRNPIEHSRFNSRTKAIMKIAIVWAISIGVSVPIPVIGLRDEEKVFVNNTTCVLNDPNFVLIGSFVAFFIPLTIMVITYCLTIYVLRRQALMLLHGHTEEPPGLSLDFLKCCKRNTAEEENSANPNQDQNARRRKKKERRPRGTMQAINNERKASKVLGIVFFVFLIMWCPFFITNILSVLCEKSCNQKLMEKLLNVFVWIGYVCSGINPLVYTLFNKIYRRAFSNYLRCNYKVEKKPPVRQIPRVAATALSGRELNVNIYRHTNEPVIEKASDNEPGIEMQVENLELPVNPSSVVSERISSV
The experiment in a line: Selectivity interaction (Panel of kinases, GPCRs, ion channels and transporters (enzymatic assay)) EUB0000266bCl HTR2C.

In assay [13] the target is T3, Cyclin-dependent kinase 7. The experiment in a line: Selectivity interaction (Kinase panel (KiNativ target engagement assay in Jurkat cells)) EUB0001635a CDK7. It counts as cell-based. To be noted: Selectivity number of off-targets 0.0, Selectivity number of targets 233.0, Source Knowledge https://www.sciencedirect.com/science/article/pii/S2451945619300674?via%3Dihub, at 1 µM.

Sequence of Glycogen synthase kinase-3 beta (P49841 whole entry, looked up): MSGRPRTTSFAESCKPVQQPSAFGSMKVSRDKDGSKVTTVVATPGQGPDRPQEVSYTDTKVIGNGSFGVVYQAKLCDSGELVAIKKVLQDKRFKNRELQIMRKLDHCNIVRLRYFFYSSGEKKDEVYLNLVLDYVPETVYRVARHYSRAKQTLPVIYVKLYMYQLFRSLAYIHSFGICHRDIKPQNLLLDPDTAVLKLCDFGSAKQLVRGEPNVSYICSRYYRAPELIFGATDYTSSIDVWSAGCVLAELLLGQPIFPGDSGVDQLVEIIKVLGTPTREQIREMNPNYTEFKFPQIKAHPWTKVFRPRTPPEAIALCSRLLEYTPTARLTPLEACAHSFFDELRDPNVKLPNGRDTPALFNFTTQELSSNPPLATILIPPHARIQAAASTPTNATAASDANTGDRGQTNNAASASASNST
T3 sequence (P50613 whole entry): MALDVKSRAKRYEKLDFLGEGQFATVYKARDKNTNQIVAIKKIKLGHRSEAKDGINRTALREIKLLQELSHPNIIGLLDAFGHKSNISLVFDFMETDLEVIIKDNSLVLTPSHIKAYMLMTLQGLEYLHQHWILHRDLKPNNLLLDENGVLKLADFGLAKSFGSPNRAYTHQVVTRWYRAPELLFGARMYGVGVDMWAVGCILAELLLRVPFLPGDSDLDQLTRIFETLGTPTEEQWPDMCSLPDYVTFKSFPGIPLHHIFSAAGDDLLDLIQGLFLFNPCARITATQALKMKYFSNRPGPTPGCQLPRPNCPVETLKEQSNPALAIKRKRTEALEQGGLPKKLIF
Sequence of Tyrosine-protein kinase JAK1 (P23458 whole entry): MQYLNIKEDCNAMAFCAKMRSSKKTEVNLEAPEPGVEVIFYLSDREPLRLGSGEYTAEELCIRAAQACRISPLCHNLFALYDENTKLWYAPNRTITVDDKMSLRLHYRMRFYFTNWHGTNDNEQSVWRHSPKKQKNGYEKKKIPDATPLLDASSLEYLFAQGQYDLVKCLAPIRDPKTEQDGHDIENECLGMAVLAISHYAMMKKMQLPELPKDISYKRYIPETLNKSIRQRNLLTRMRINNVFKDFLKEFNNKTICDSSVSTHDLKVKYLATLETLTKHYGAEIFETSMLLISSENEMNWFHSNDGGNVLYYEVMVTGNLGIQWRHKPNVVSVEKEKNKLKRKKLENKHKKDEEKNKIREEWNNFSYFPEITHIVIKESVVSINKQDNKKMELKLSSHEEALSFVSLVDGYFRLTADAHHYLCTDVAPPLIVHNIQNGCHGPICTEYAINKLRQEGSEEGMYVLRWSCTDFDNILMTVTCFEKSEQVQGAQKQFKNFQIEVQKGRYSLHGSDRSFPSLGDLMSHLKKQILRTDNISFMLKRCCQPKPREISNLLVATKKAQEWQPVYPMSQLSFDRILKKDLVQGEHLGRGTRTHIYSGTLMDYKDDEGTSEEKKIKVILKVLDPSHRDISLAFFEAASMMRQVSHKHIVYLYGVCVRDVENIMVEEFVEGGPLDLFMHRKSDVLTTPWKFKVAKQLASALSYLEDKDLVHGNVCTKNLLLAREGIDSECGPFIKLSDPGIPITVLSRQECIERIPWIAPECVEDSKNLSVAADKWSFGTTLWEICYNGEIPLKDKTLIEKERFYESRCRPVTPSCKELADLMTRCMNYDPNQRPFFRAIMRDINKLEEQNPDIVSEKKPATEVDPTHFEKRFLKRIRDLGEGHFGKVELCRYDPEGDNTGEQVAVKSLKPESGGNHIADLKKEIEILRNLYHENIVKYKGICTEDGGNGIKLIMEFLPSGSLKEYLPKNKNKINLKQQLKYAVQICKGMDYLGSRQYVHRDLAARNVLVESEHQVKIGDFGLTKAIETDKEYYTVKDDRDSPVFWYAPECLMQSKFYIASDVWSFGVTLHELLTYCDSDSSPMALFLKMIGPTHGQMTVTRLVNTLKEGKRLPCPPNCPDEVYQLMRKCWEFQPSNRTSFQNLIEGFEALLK
Sequence of Sodium-dependent dopamine transporter (Q01959 whole entry): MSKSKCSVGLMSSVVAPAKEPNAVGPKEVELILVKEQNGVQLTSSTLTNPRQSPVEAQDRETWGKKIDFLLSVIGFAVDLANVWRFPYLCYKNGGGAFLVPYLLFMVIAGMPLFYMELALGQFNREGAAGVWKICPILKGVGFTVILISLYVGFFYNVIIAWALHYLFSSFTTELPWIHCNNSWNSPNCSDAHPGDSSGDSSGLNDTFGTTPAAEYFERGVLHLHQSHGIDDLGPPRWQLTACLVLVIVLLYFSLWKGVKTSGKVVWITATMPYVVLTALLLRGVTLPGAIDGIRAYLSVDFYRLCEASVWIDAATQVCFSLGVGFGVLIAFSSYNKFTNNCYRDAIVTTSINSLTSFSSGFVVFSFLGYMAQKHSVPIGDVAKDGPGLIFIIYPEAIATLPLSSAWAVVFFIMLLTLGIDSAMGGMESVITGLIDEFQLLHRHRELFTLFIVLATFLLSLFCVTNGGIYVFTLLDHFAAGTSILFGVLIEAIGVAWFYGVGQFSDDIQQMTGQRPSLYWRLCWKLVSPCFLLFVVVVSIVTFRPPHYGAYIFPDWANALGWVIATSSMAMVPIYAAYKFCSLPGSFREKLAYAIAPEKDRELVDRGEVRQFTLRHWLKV
Sequence of Mitogen-activated protein kinase kinase kinase 4 (Homo sapiens) (Q9Y6R4 whole entry): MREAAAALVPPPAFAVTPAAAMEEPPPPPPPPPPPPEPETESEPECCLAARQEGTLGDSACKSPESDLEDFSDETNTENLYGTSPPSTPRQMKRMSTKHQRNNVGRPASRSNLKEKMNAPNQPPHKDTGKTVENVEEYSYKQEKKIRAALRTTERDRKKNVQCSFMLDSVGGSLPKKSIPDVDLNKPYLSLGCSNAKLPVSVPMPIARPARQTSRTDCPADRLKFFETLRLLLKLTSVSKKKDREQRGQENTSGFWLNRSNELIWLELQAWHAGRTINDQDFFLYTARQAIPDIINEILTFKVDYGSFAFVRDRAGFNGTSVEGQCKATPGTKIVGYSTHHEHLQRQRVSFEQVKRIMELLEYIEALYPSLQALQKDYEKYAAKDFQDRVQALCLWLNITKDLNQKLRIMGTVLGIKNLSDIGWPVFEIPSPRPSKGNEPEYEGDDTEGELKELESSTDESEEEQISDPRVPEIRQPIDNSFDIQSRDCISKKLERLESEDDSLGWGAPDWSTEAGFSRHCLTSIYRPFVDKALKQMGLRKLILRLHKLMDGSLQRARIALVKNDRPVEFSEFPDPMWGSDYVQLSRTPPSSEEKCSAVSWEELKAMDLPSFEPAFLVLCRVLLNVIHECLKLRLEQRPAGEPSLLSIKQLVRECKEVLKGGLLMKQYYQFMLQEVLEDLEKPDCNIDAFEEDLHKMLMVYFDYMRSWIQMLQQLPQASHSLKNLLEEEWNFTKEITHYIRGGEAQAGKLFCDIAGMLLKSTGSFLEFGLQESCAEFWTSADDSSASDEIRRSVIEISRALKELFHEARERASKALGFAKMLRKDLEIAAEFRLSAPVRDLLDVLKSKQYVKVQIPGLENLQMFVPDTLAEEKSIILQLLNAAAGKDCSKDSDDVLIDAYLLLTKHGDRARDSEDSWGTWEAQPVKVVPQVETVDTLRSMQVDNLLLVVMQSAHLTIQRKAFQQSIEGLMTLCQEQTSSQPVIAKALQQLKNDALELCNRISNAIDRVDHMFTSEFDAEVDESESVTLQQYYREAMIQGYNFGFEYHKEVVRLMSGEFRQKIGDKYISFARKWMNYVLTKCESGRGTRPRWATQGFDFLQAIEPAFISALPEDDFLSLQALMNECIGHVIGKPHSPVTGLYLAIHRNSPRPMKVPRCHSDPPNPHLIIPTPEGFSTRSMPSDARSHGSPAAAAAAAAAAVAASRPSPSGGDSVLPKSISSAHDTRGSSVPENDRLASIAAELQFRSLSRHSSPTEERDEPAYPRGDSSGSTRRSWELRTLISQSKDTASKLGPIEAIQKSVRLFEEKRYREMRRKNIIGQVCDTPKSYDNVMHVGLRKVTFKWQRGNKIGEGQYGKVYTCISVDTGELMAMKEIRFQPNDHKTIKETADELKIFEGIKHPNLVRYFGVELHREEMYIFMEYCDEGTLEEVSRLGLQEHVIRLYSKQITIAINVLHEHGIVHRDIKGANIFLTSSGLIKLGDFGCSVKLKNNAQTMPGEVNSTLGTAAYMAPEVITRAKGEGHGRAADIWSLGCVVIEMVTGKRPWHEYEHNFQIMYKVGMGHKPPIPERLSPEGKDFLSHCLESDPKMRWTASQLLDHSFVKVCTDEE
Sequence of Casein kinase II subunit alpha' (Homo sapiens) (P19784 whole entry, looked up): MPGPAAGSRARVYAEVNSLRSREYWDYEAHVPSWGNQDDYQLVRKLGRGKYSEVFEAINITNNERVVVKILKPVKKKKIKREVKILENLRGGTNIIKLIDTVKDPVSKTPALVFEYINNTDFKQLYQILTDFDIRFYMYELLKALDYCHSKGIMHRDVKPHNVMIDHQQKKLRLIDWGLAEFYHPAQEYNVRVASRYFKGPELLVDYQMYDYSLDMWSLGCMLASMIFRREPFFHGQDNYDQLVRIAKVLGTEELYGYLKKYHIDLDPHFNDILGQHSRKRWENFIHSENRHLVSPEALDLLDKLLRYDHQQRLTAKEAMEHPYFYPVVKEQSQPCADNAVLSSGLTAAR

Regarding `N#Cc1cccc(-c2c[nH]c3ncnc(N4CCOCC4)c23)c1`, in assay [1], the % of inhibition was -6%.

For the molecule `Cc1cc(F)c(C(=O)Nc2cccc(-c3nncn3C(C)C)n2)cc1-n1cnc(C2CC2)c1`, the % of control in assay [2] was determined as 88%.

The molecule `O=C(NOC[C@H](O)CO)c1ccc(F)c(F)c1Nc1ccc(I)cc1F` had a % of control in [3] of 89%.

`CNC(=O)Nc1ccc(-c2nc(N3CC4CCC(C3)O4)c3cnn(C4CCC5(CC4)OCCO5)c3n2)cc1`: the results for the % of inhibition in assay [4] and in [5] were 5% and 2%, respectively.

With `Cc1cc([C@@H](C)Nc2ccccc2C(=O)O)c2nc(N3CCOCC3)cc(=O)n2c1` [AZD-6482], the % of control in assay [6] amounted to 100%; in assay [7] it was 97%.

Turning to `CC[C@@H]1[C@H](F)C(=O)N[C@@H]1COc1nccc2cc(C(N)=O)c(OC)cc12` [ZIMLOVISERTIB], the % of inhibition is -3.7% in [8] (at 0.01 µM); 1.4% in assay [8] (at 0.04 µM); 2.2% in assay [8] (at 0.2 µM); 2% in [8] (at 1 µM); -4.4% in [8] (at 5 µM).

For `CN1Cc2nccc(-c3cn(C)nc3-c3ccc(F)cc3)c2C1=O`, the % of inhibition in [9] was found to be 2%.

In the case of `CCC(=O)N1CCN(c2ccc(-n3c(=O)ccc4cnc5ccc(-c6cnc7ccccc7c6)cc5c43)cc2C(F)(F)F)CC1`, the % of control in assay [10] amounted to 71%.

In the case of `Cc1cc(C)cc([C@@H]2c3cc(C)ccc3NC(=O)CN2C(=O)c2ccc(Br)s2)c1`, the % of inhibition in assay [11] is 6%.

Take `CCn1c(-c2nc3cc(C(=O)N4CCCC(N)C4)ccc3n2C)cc2ccccc21` (configuration not stated): in assay [12], the pXC50 came out at 4.7 M.

Molecule `C=CC(=O)Nc1ccc(C(=O)Nc2[nH]nc3c2CN(C(=O)N[C@H](CN(C)C)c2ccccc2)C3(C)C)cc1` showed a % of engagement in assay [13] of 95.5%.

Values taken from ChEMBL document CHEMBL5465560, “Selectivity Literature for EUbOPEN Chemogenomic Library” (2024).
